In ChEMBL document CHEMBL5352433, “Design, synthesis, and biological evaluation of low-toxic lappaconitine derivatives as potential analgesics” (Eur J Med Chem, 2022):

test system: Mus musculus; assay: Analgesic activity against acetic acid-induced Kunming writhing mouse model assessed as inhibition of writhing at 10 mg/kg, sc pretreated with compound for 15 mins followed by acetic acid addition and measured after 15 mins relative to control; type: functional; conditions: 0.5 h, time 30 min

Compared with `CCN1C[C@]2(OC(=O)c3ccccc3NS(=O)(=O)c3ccc(Br)cc3)CC[C@H](OC)[C@]34C1[C@H](C[C@H]23)[C@@]1(O)C[C@H](OC)[C@H]2C[C@@H]4[C@]1(O)[C@H]2OC`, `CCN1C[C@]2(OC(=O)c3ccccc3NS(=O)(=O)c3ccc(C)cc3)CC[C@H](OC)[C@]34C1[C@H](C[C@H]23)[C@@]1(O)C[C@H](OC)[C@H]2C[C@@H]4[C@]1(O)[C@H]2OC` is higher in inhibition in vivo at 10 mg/kg: 11.4% for the first, 27.7% for the second.

First: CCN1C[C@]2(OC(=O)c3ccccc3NS(=O)(=O)Cc3ccc([N+](=O)[O-])cc3)CC[C@H](OC)[C@]34C1[C@H](C[C@H]23)[C@@]1(O)C[C@H](OC)[C@H]2C[C@@H]4[C@]1(O)[C@H]2OC
Second: CCN1C[C@]2(OC(=O)c3ccccc3NS(=O)(=O)Cc3ccccc3)CC[C@H](OC)[C@]34C1[C@H](C[C@H]23)[C@@]1(O)C[C@H](OC)[C@H]2C[C@@H]4[C@]1(O)[C@H]2OC
The inhibition in vivo at 10 mg/kg of the first is lower: 42.4% for the first, 43.8% for the second.

Going from `CCN1C[C@]2(OC(=O)c3ccccc3NS(=O)(=O)c3cccc(F)c3)CC[C@H](OC)[C@]34C1[C@H](C[C@H]23)[C@@]1(O)C[C@H](OC)[C@H]2C[C@@H]4[C@]1(O)[C@H]2OC` to `CCN1C[C@]2(OC(=O)c3ccccc3NS(=O)(=O)c3ccc(F)c(F)c3)CC[C@H](OC)[C@]34C1[C@H](C[C@H]23)[C@@]1(O)C[C@H](OC)[C@H]2C[C@@H]4[C@]1(O)[C@H]2OC`, the inhibition in vivo at 10 mg/kg falls from 50.2% to 28.3%.

First: CCN1C[C@]2(OC(=O)c3ccccc3NS(=O)(=O)c3ccc(F)cc3F)CC[C@H](OC)[C@]34C1[C@H](C[C@H]23)[C@@]1(O)C[C@H](OC)[C@H]2C[C@@H]4[C@]1(O)[C@H]2OC
Second: CCN1C[C@]2(OC(=O)c3ccccc3NS(=O)(=O)c3cc(F)ccc3F)CC[C@H](OC)[C@]34C1[C@H](C[C@H]23)[C@@]1(O)C[C@H](OC)[C@H]2C[C@@H]4[C@]1(O)[C@H]2OC
The inhibition in vivo at 10 mg/kg of the first is lower: 27.2% for the first, 45.1% for the second.

First: CCN1C[C@]2(OC(=O)c3ccccc3NS(=O)(=O)c3ccc(OC)cc3)CC[C@H](OC)[C@]34C1[C@H](C[C@H]23)[C@@]1(O)C[C@H](OC)[C@H]2C[C@@H]4[C@]1(O)[C@H]2OC
Second: CCN1C[C@]2(OC(=O)c3ccccc3NS(=O)(=O)c3ccc(N(C)C)cc3)CC[C@H](OC)[C@]34C1[C@H](C[C@H]23)[C@@]1(O)C[C@H](OC)[C@H]2C[C@@H]4[C@]1(O)[C@H]2OC
The inhibition in vivo at 10 mg/kg of the first is lower: 16.8% for the first, 23% for the second.

First: CCN1C[C@]2(OC(=O)c3ccccc3NS(=O)(=O)c3ccccc3F)CC[C@H](OC)[C@]34C1[C@H](C[C@H]23)[C@@]1(O)C[C@H](OC)[C@H]2C[C@@H]4[C@]1(O)[C@H]2OC
Second: CCN1C[C@]2(OC(=O)c3ccccc3NS(=O)(=O)c3ccc(C#N)cc3)CC[C@H](OC)[C@]34C1[C@H](C[C@H]23)[C@@]1(O)C[C@H](OC)[C@H]2C[C@@H]4[C@]1(O)[C@H]2OC
The inhibition in vivo at 10 mg/kg of the first is higher: 60.3% for the first, 21.4% for the second.

Compared with `CCN1C[C@]2(OC(=O)c3ccccc3NS(=O)(=O)c3ccc(C(F)(F)F)cc3)CC[C@H](OC)[C@]34C1[C@H](C[C@H]23)[C@@]1(O)C[C@H](OC)[C@H]2C[C@@H]4[C@]1(O)[C@H]2OC`, `CCN1C[C@]2(OC(=O)c3ccccc3NS(=O)(=O)c3cc(F)cc(F)c3)CC[C@H](OC)[C@]34C1[C@H](C[C@H]23)[C@@]1(O)C[C@H](OC)[C@H]2C[C@@H]4[C@]1(O)[C@H]2OC` is higher in inhibition in vivo at 10 mg/kg: 19.4% for the first, 37.5% for the second.

With `CCN1C[C@]2(OC(=O)c3ccccc3NS(=O)(=O)c3ccc(-c4ccccc4)cc3)CC[C@H](OC)[C@]34C1[C@H](C[C@H]23)[C@@]1(O)C[C@H](OC)[C@H]2C[C@@H]4[C@]1(O)[C@H]2OC` the inhibition in vivo at 10 mg/kg was 16.1%.
